# Several values for one entry are separate records, joined by “and”; a condition that tells them apart may be missing. Identical values can stand only once.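 Dose response: 5 concentrations. Exposure: 48 h. Format: 96-well plates. Endpoint: linear interpolation; highest concentration if not reached. Here, GI50 denotes the concentration required for 50% inhibition of growth. TGI marks complete inhibition of growth.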
# Columns and labels:
# Assay in all cases: growth of human tumour cells (NCI), 48 h
# [1] = test system: CCRF-CEM leukemia
# [2] = test system: SK-MEL-28 melanoma
# [3] = test system: UACC-62 melanoma
# [4] = test system: K-562 leukemia
# [5] = test system: HOP-92 NSCLC
# [6] = test system: A549 NSCLC
# [7] = test system: HCC-2998 colon
# [8] = test system: COLO 205 colon
# [9] = test system: RPMI-8226 leukemia
# [10] = test system: MDA-MB-231 breast
# [11] = test system: SNB-75 CNS
# [12] = test system: A498 renal
# [13] = test system: OVCAR-5 ovarian
# [14] = test system: 786-0 renal
# [15] = test system: DU-145 prostate
# [16] = test system: SK-MEL-5 melanoma
# [17] = test system: BT-549 breast
# [18] = test system: NCI-H522 lung
# [19] = test system: MALME-3M melanoma
# [20] = test system: NCI-H23 lung
# [21] = test system: MCF7 breast
# [22] = test system: HCT-116 colon
# [23] = test system: HOP-62 NSCLC
# [24] = test system: IGROV1 ovarian
# [25] = test system: MDA-MB-435
# [26] = test system: OVCAR-3 ovarian
# [27] = test system: OVCAR-8 ovarian
# [28] = test system: NCI-H460 lung
# [29] = test system: SK-MEL-2 melanoma
# [30] = test system: SW-620 colon
# [31] = test system: UACC-257 melanoma
# [32] = test system: NCI-H226 lung
# [33] = test system: LOX IMVI melanoma
# [34] = test system: SF-295 CNS
# [35] = test system: SN12C renal
# [36] = test system: CAKI-1 renal
# [37] = test system: PC-3 prostate
# [38] = test system: TK-10 renal
# [39] = test system: HS 578T breast
# [40] = test system: UO-31 renal
# [41] = test system: EKVX NSCLC
# [42] = test system: MOLT-4 leukemia
# [43] = test system: SR leukemia
# [44] = test system: ACHN renal
# [45] = test system: KM12 colon
# [46] = test system: OVCAR-4 ovarian
# [47] = test system: SNB-19 CNS
# [48] = test system: U251 CNS
# [49] = test system: M14 melanoma
# [50] = test system: T-47D breast
# [51] = test system: SF-268 CNS
# [52] = test system: HT29 colon
# [53] = test system: SF-539 CNS
# [54] = test system: HCT-15 colon
# [55] = test system: RXF 393 renal
# [56] = test system: NCI/ADR-RES ovarian
# [57] = test system: HL-60(TB) leukemia
# [58] = test system: SK-OV-3 ovarian
structure (smiles),measurement,setting,value
CCNC(=O)Nc1ccc(-c2nc3c(c(N4CCOC[C@@H]4C)n2)CCN(C2COC2)C3)cc1,GI50,[1],0.525 µM and 0.393 µM
same,TGI,[1],> 100 µM
same,GI50,[2],0.199 µM and 0.157 µM
same,TGI,[2],5.39 µM and 2.24 µM
same,GI50,[3],0.194 µM and 0.0727 µM
same,TGI,[3],1.28 µM and 0.994 µM
same,GI50,[4],1.27 µM and 1.1 µM
same,TGI,[4],> 100 µM
same,GI50,[5],0.043 µM and 0.0307 µM
same,TGI,[5],0.681 µM and 0.493 µM
same,GI50,[6],0.354 µM and 0.384 µM
same,TGI,[6],> 100 µM
same,GI50,[7],0.748 µM and 0.398 µM
same,TGI,[7],> 100 µM
same,GI50,[8],0.289 µM and 0.268 µM
same,TGI,[8],> 100 µM
same,GI50,[9],0.286 µM and 0.218 µM
same,TGI,[9],49 µM and > 8.49 µM
same,GI50,[10],0.392 µM and 0.267 µM
same,TGI,[10],> 48.2 µM
same,GI50,[11],0.104 µM and 0.0737 µM
same,TGI,[11],1.13 µM and 1.1 µM
same,GI50,[12],0.0164 µM and 0.0305 µM
same,TGI,[12],0.114 µM and 0.2 µM
same,GI50,[13],0.302 µM and 0.384 µM
same,TGI,[13],> 37.1 µM
same,GI50,[14],0.386 µM and 0.278 µM
same,TGI,[14],29.1 µM and > 10 µM
same,GI50,[15],0.562 µM and 0.435 µM
same,TGI,[15],> 100 µM
same,GI50,[16],0.317 µM and 0.331 µM
same,TGI,[16],8.52 µM and 2.56 µM
same,GI50,[17],0.175 µM and 0.115 µM
same,TGI,[17],1.96 µM and 1.79 µM
same,GI50,[18],0.181 µM and 0.159 µM
same,TGI,[18],> 24.2 µM and 6.18 µM
same,GI50,[19],0.0743 µM and 0.0825 µM
same,TGI,[19],1.6 µM and 1.2 µM
same,GI50,[20],0.69 µM and 0.512 µM
same,TGI,[20],> 100 µM
same,GI50,[21],0.121 µM and 0.115 µM
same,TGI,[21],> 100 µM
same,GI50,[22],1.19 µM and 0.78 µM
same,TGI,[22],> 100 µM
same,GI50,[23],0.443 µM and 0.391 µM
same,TGI,[23],22 µM and > 7.45 µM
same,GI50,[24],0.115 µM and 0.071 µM
same,TGI,[24],5.38 µM and 0.751 µM
same,GI50,[25],0.3 µM and 0.318 µM
same,TGI,[25],> 25.6 µM
same,GI50,[26],0.355 µM and 0.229 µM
same,TGI,[26],> 69.5 µM
same,GI50,[27],0.46 µM and 0.534 µM
same,TGI,[27],> 100 µM
same,GI50,[28],0.236 µM and 0.13 µM
same,TGI,[28],> 100 µM
same,GI50,[29],0.295 µM and 0.392 µM
same,TGI,[29],3 µM and 3.43 µM
same,GI50,[30],0.793 µM and 0.61 µM
same,TGI,[30],> 100 µM
same,GI50,[31],0.232 µM and 0.287 µM
same,TGI,[31],2.74 µM and 3.92 µM
same,GI50,[32],0.247 µM and 0.119 µM
same,GI50,[33],0.411 µM and 0.329 µM
same,TGI,[33],> 100 µM
same,GI50,[34],0.158 µM and 0.166 µM
same,TGI,[34],1.43 µM and 1.84 µM
same,GI50,[35],0.31 µM and 0.285 µM
same,TGI,[35],> 100 µM
same,GI50,[36],0.586 µM and 0.179 µM
same,TGI,[36],> 31.5 µM
same,GI50,[37],0.166 µM and 0.106 µM
same,GI50,[38],0.195 µM and 0.128 µM
same,TGI,[38],3.86 µM and 3.13 µM
same,GI50,[39],0.155 µM and 0.146 µM
same,TGI,[39],0.804 µM and 0.93 µM
same,GI50,[40],0.101 µM and 0.0801 µM
same,TGI,[40],2.39 µM and 1.45 µM
same,GI50,[41],0.323 µM
same,TGI,[41],> 9.65 µM
same,GI50,[42],0.521 µM and 0.911 µM
same,TGI,[42],> 100 µM
same,GI50,[43],0.439 µM and 0.416 µM
same,TGI,[43],> 100 µM
same,GI50,[44],0.285 µM and 0.395 µM
same,TGI,[44],> 56.2 µM
same,GI50,[45],0.507 µM and 0.403 µM
same,TGI,[45],> 100 µM
same,GI50,[46],0.154 µM and 0.259 µM
same,TGI,[46],1.71 µM and > 7.24 µM
same,GI50,[47],0.303 µM and 0.45 µM
same,TGI,[47],> 21.6 µM
same,GI50,[48],0.357 µM and 0.413 µM
same,TGI,[48],> 100 µM
same,GI50,[49],0.418 µM and 0.323 µM
same,TGI,[49],> 100 µM
same,GI50,[50],0.0498 µM and 0.0316 µM
same,TGI,[50],0.591 µM and 0.381 µM
same,GI50,[51],0.591 µM and 0.29 µM
same,TGI,[51],> 100 µM
same,GI50,[52],0.587 µM and 0.409 µM
same,TGI,[52],> 100 µM
same,GI50,[53],0.247 µM and 0.336 µM
same,TGI,[53],1.85 µM and 3.53 µM
same,GI50,[54],0.638 µM and 0.45 µM
same,TGI,[54],> 100 µM
same,GI50,[55],0.137 µM and 0.125 µM
same,TGI,[55],0.727 µM and 0.857 µM
same,GI50,[56],2.87 µM and 1.78 µM
same,TGI,[56],> 100 µM
same,GI50,[57],7.44 µM and 4.61 µM
same,TGI,[57],> 100 µM
same,GI50,[58],0.148 µM and 0.131 µM
same,TGI,[58],1.16 µM and 0.956 µM
C[C@H](Nc1ccc(C#N)n(C)c1=O)c1cc2cc(Cl)ccc2[nH]c1=O,GI50,[1],24.5 µM
same,TGI,[1],> 100 µM
same,GI50,[2],28.5 µM
same,TGI,[2],> 100 µM
same,GI50,[3],20.1 µM
same,TGI,[3],77.6 µM
same,GI50,[4],27.1 µM
same,TGI,[4],> 100 µM
same,GI50,[5],2.8 µM
same,TGI,[5],37.3 µM
same,GI50,[6],24.3 µM
same,TGI,[6],> 100 µM
same,GI50,[7],33.5 µM
same,TGI,[7],> 100 µM
same,GI50,[8],19 µM
same,TGI,[8],40.2 µM
same,GI50,[9],14.2 µM
same,TGI,[9],49.3 µM
same,GI50,[10],23.2 µM
same,TGI,[10],98.4 µM
same,GI50,[11],4.67 µM
same,TGI,[11],55.4 µM
same,GI50,[12],20.4 µM
same,TGI,[12],92.2 µM
same,GI50,[13],66.6 µM
same,TGI,[13],> 100 µM
same,GI50,[15],33 µM
same,TGI,[15],> 100 µM
same,GI50,[16],15.6 µM
same,TGI,[16],29.1 µM
same,GI50,[17],12.2 µM
same,TGI,[17],70.1 µM
same,GI50,[18],29.6 µM
same,TGI,[18],> 100 µM
same,GI50,[19],25.3 µM
same,TGI,[19],> 100 µM
same,GI50,[20],35.4 µM
same,TGI,[20],> 100 µM
same,GI50,[21],23.2 µM
same,TGI,[21],> 100 µM
same,GI50,[22],23.9 µM
same,TGI,[22],> 100 µM
same,GI50,[23],25.7 µM
same,TGI,[23],> 100 µM
same,GI50,[24],16 µM
same,TGI,[24],89.7 µM
same,GI50,[25],28.6 µM
same,TGI,[25],88.7 µM
same,GI50,[26],24.1 µM
same,TGI,[26],> 100 µM
same,GI50,[27],33.2 µM
same,TGI,[27],> 100 µM
same,GI50,[28],32.8 µM
same,TGI,[28],> 100 µM
same,GI50,[29],26.7 µM
same,TGI,[29],94 µM
same,GI50,[30],46.3 µM
same,TGI,[30],> 100 µM
same,GI50,[31],32.6 µM
same,TGI,[31],> 100 µM
same,GI50,[32],23.4 µM
same,TGI,[32],> 100 µM
same,GI50,[33],33.1 µM
same,TGI,[33],> 100 µM
same,GI50,[34],26.9 µM
same,TGI,[34],94.3 µM
same,GI50,[35],26.7 µM
same,TGI,[35],> 100 µM
same,GI50,[36],19.6 µM
same,TGI,[36],> 100 µM
same,GI50,[37],13.3 µM
same,TGI,[37],83.5 µM
same,GI50,[38],37.8 µM
same,TGI,[38],> 100 µM
same,GI50,[39],13.7 µM
same,TGI,[39],> 100 µM
same,GI50,[40],17.6 µM
same,TGI,[40],> 100 µM
same,GI50,[41],21.1 µM
same,TGI,[41],> 100 µM
same,GI50,[42],18.6 µM
same,TGI,[42],64.1 µM
same,GI50,[43],27.7 µM
same,TGI,[43],> 100 µM
same,GI50,[44],27 µM
same,TGI,[44],> 100 µM
same,GI50,[45],38.3 µM
same,TGI,[45],> 100 µM
same,GI50,[46],19.3 µM
same,TGI,[46],85.6 µM
same,GI50,[47],32.5 µM
same,TGI,[47],> 100 µM
same,GI50,[48],30 µM
same,TGI,[48],> 100 µM
same,GI50,[49],23.7 µM
same,TGI,[49],> 100 µM
same,GI50,[50],17.3 µM
same,TGI,[50],94.4 µM
same,GI50,[51],22.7 µM
same,TGI,[51],> 100 µM
same,GI50,[52],33.1 µM
same,TGI,[52],> 100 µM
same,GI50,[53],40.2 µM
same,TGI,[53],> 100 µM
same,GI50,[54],28.6 µM
same,TGI,[54],> 100 µM
same,GI50,[55],13.3 µM
same,TGI,[55],67.7 µM
same,GI50,[56],26.1 µM
same,TGI,[56],> 100 µM
same,GI50,[57],22.4 µM
same,TGI,[57],58.5 µM
same,GI50,[58],23.9 µM
same,TGI,[58],75.1 µM
